Assay results published in patent publication US7560468B2, “Substituted 1,4,8-triazaspiro[4,5]decan-2-one compounds” (Gruenenthal GmbH, priority 2004, dated 2009).

What was measured:
[1] = target: T1, 5-HT transporter (Rattus norvegicus, UniProt P31652); experiment: Inhibition of 5-HT uptake in synaptosomes; assay type: biochemical; conditions: rat, 1 μM
T1 construct: from tissue; host or cells: rat brain synaptosomes (marrow/medulla and pons), P2 fraction

[2] = target: human CB2 receptor (Homo sapiens, UniProt P34972); experiment: Affinity to the cannabinoid receptor CB2, displacement of [3H]-CP 55,940; conditions: for Inhibition CB2 10 μM, % inhibition: membranes of HEK 293EBNA cells with human CB2 receptor
Procedure: The radioligand used was tritium-labeled 5-(1,1-dimethylheptyl)-2-(5-hydroxypropyl)cyclohexyl)-1-alpha,2-beta,5-alpha)-phenol (^[3]H—CP 55,940 with 103.4 of Ci/mmol, 1 m Ci/mL). Determination was carried out in a test buffer comprising 50 mM of Tris-HCl, 2.5 mm of EDTA, 5 mm of MgCl2 and 1.0 mg/mL of fatty acid-free BSA. The test substances were in each case dissolved in DMSO.
The affinity of the compounds of the invention to the CB2 receptor is determined by their ability to displace ^[3]H—CP from 55,940 of CB2 receptors in membranes of HEK 293 EBNA cells. For this purpose 8 μg of membranes (20 mL of a solution of membranes in a concentration of 400 g/ml) are incubated in wells of a microtiter plate with a 0.33 nM of solution of [3]H-CP 55,949 (120 of Ci/mmol) in a total volume of test buffer of 200 μL for 90 minutes at 30° C.
Subsequently, either the test substances or WIN 55,212-2 for determination the non-specific binding are placed, dissolved in each case in dimethyl sulphoxide, in the wells so that in each case a concentration of the relevant substances of 10 μM is obtained.
Incubation is continued for a further 40 minutes at 30° C. dc. […] The filters are washed nine times with 0.5 mL of ice-cold washing buffer (50 nM of Tris-HCl, 5 mM of MgCl2, 2.5 mm of EDTA, 2% of BSA, pH 7.4), air-dried, placed in scintillation liquid, and the radioactivity is determined with the aid of a scintillation counter.
The percentage displacement of the radio-active ligand ^[3]H—CP 55,940 from its binding to the CB2 receptor is indicated as percentage inhibition of the specific binding. In order to determine Ki the IC50 inhibition concentrations are calculated based on of the percentage displacement achieved by the compounds of the general formula I to be tested at various concentrations causing a 50 percent displacement of the radioactive ligands.

[3] = system: batrachotoxin (BTX) binding site of the sodium channel; experiment: Affinity to the batrachotoxin (BTX) binding site of the sodium channel; conditions: rat cerebrocortex synaptosomes, [3H]-batrachotoxinin A20 α-benzoate 10 nM; test concentration not given
[4] = system: NA transporter; experiment: Inhibition of noradrenalin uptake in synaptosomes; assay type: biochemical

Chain of human CB2 receptor (P34972 whole entry): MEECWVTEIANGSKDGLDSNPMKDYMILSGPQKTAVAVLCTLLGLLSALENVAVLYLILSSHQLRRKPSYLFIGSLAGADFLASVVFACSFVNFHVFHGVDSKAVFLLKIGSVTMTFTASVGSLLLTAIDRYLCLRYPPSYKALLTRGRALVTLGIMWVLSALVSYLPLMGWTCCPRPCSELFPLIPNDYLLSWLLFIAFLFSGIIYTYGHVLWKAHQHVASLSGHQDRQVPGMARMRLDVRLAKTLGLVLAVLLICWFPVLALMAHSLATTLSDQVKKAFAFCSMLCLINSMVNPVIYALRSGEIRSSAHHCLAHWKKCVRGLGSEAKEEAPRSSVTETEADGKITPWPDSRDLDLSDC
T1 sequence (P31652 whole entry): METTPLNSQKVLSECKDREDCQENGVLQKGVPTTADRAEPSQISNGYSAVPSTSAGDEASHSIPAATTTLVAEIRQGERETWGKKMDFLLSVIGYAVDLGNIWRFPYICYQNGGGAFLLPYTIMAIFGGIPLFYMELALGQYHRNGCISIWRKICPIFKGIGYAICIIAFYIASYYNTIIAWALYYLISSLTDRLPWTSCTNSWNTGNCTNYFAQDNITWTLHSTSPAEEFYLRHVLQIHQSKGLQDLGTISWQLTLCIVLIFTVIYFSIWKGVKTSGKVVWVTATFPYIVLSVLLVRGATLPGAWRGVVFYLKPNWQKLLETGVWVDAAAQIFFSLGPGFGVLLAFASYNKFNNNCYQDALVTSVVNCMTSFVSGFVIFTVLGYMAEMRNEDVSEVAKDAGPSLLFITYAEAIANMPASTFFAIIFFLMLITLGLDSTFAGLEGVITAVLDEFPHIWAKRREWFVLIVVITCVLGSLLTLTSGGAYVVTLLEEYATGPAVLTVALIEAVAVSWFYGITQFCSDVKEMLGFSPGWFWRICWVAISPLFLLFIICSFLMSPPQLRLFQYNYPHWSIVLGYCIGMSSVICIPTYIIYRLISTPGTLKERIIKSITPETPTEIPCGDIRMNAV

Structure (SMILES)	Uptake_5-HT, rat, 1 μM, % inhibition [1]	Inhibition CB2 10 μM, % inhibition [2]	BTX Inhibition [3]	Uptake (NA), rat, 10 μM, % inhibition [4]	inhibition at 10 µM ([2]; read-out: Inhibition CB2 10 μM, % inhibition)
CCOC(=O)CN1C(=O)C(Cc2ccccc2)NC12CCN(S(=O)(=O)c1ccc(OC)cc1)CC2 (centres unmarked) [Example 50, Ethyl[3-benzyl-8-(4-methoxy-benzolsulfonyl)-2-oxo-1,4,8-triazaspiro[4,5]dec-1-yl]-acetate]	79%	52%	32	38%	–
C=CCN1C(=O)C(CCSC)NC12CCN(S(=O)(=O)c1ccccc1S(C)(=O)=O)CC2 (centres unmarked) [Example 54, 1-Allyl-8-(2-methansulfonylbenzolsulfonyl)-3-(2-methylsulfanylethyl)-1,4,8-triazaspiro[4,5]decan-2-one]	30%	56%	–	46%	–
O=C1C(Cc2ccccc2)NC2(CCN(C(=S)NCC3CCCCC3)CC2)N1Cc1ccccc1F (centres unmarked) [Example 171, 3-Benzyl-1-(2-fluorobenzyl)-2-oxo-1,4,8-triazaspiro[4,5]decan-8-thiocarboxylic acid cyclohexylmethylamide]	–	–	86	34%	41%
O=C1C(Cc2ccccc2)NC2(CCN(C(=S)Nc3c(Cl)cccc3Cl)CC2)N1Cc1ccccc1F (centres unmarked) [Example 187, 3-Benzyl-1-(2-fluorobenzyl)-2-oxo-1,4,8-triazaspiro[4,5]decan-8-thiocarboxylic acid (2,6-dichlorobenzol)amide]	54%	84%	86	39%	–
